Test systems include A549; HOP-62; MDA-MB-231; MDA-MB-435; MOLT-4; NCI-H226; NCI-H23; OVCAR-3; OVCAR-5; OVCAR-8; RPMI-8226; SF-268; SF-295; SK-MEL-5; SK-OV-3; TK-10; UACC-257; UO-31; HCT-116; SN12C.
Holding throughout (test): growth of human tumour cells (NCI), 48 h

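Growth conditions: 96-well plates. Treatment: test compound, 48 hours, 5 concentrations. Analysis: linear interpolation between bracketing concentrations; unreached endpoints set to highest concentration. The concentration for 50% growth inhibition is given as GI50.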 Activity calls are given as the source filed them. Rule as the data show it: active = GI50 up to about 1.1 µM and inactive = higher.

As for `NC(=S)N/N=C1/CCCC2CCCC[C@@H]12` (stereo not given in full), the GI50 in the experiment with A549, in the experiment with HOP-62, in the experiment on MDA-MB-231, in the experiment with MDA-MB-435, with MOLT-4 and with NCI-H226 was > 100 µM (inactive) each time. Also, the GI50 in the experiment on NCI-H23, in the experiment on OVCAR-3, in the experiment with OVCAR-5, with OVCAR-8, in the experiment with RPMI-8226 and in the experiment with SF-268 was > 100 µM (inactive) in each case. For the same molecule, the GI50 in the experiment with SF-295 is > 100 µM (inactive); with SK-MEL-5, 97.3 µM (inactive); in the experiment on SK-OV-3 it was > 100 µM (inactive); in the experiment with TK-10, > 100 µM (inactive); in the experiment with UACC-257 it was > 100 µM (inactive); with UO-31, > 100 µM (inactive).
`COc1cc(O)c2c(=O)cc(C3(OC(C)=O)C=CC(OC4OC(CO)C(O)C(O)C4O)C=C3)oc2c1` (stereo not given): the GI50 in the experiment with A549, with HCT-116, in the experiment on HOP-62, in the experiment with MDA-MB-231, with MDA-MB-435 and in the experiment with MOLT-4 was > 100 µM (inactive) each time. Besides, the GI50 in the experiment with NCI-H226, in the experiment on NCI-H23, with OVCAR-3, with OVCAR-5, in the experiment with OVCAR-8 and in the experiment with RPMI-8226 was > 100 µM (inactive) in each case. The GI50 in the experiment with SF-295, with SK-MEL-5, in the experiment with SK-OV-3, with SN12C, with TK-10 and in the experiment on UACC-257 was > 100 µM (inactive) throughout. Besides, the GI50 with UO-31 was > 100 µM (inactive).
Turning to `CCOC(=O)NN(C(=O)OCC)C(=C(C1=CCCCC1)N1CCOCC1)N(NC(=O)OCC)C(=O)OCC`, the GI50 in the experiment with A549, in the experiment with HOP-62, with MDA-MB-231, with MDA-MB-435, in the experiment with MOLT-4 and in the experiment with NCI-H226 was > 100 µM (inactive) throughout. Moreover, the GI50 with NCI-H23, with OVCAR-3, in the experiment on OVCAR-5, with OVCAR-8, in the experiment with RPMI-8226 and in the experiment with SF-268 was > 100 µM (inactive) each time. Further, the GI50 in the experiment on SF-295, in the experiment on SK-OV-3, with SN12C, in the experiment with TK-10 and in the experiment on UO-31 was > 100 µM (inactive) each time.
`CCCCC(C(=O)NCCNC(=O)CCC(=O)N(C)O)C(=O)NCCNC(=O)CCC(=O)N(C)O`: the GI50 in the experiment on A549, with HCT-116, in the experiment on HOP-62, with MDA-MB-231, in the experiment on MDA-MB-435 and in the experiment with MOLT-4 was > 100 µM (inactive) each time. The GI50 in the experiment with NCI-H226, in the experiment on NCI-H23, in the experiment with OVCAR-3, in the experiment on OVCAR-5, in the experiment on OVCAR-8 and with RPMI-8226 was > 100 µM (inactive) in each case. Besides, the GI50 in the experiment with SF-295, with SK-MEL-5, with SK-OV-3, with SN12C, with TK-10 and in the experiment on UACC-257 was > 100 µM (inactive) in each case. Besides, the GI50 in the experiment on UO-31 was > 100 µM (inactive).
Consider `S=C(Nc1ccc(Br)cn1)NC12CC3CC(CC(C3)C1)C2`, for which the GI50 is 16.2 µM (inactive) in the experiment with A549; 10.7 µM (inactive) in the experiment with HCT-116; 23.9 µM (inactive) in the experiment with HOP-62; 17.8 µM (inactive) with MDA-MB-231; 92.9 µM (inactive) in the experiment with MDA-MB-435; 25.8 µM (inactive) in the experiment with MOLT-4. The GI50 was 20.5 µM (inactive) in the experiment with NCI-H226; 15.3 µM (inactive) with NCI-H23; 46.3 µM (inactive) with OVCAR-3; 17.5 µM (inactive) in the experiment with OVCAR-5; 7.57 µM (inactive) with OVCAR-8; 65.2 µM (inactive) in the experiment on RPMI-8226. For the same molecule, the GI50 is 11.4 µM (inactive) in the experiment on SF-268; 17 µM (inactive) with SF-295; 23.1 µM (inactive) in the experiment with SK-OV-3; 25.1 µM (inactive) with UACC-257; 28.3 µM (inactive) in the experiment on UO-31.
On to `COC1=C(C)C(=O)C2=C(C1=O)C1C3CC4=C(C(=O)C(OC)=C(C)C4=O)C(CNC(=O)C(C)=O)N3C(C#N)C(C2)N1C` (stereo not given), for which the GI50 was 0.182 µM (active) with A549; 0.00711 µM (active) in the experiment with HCT-116; 0.0215 µM (active) with HOP-62; 0.00283 µM (active) in the experiment on MDA-MB-231; 0.0016 µM (active) with MDA-MB-435; 0.00838 µM (active) in the experiment with MOLT-4. Further, the GI50 with NCI-H226 was 0.0177 µM (active); with NCI-H23 it was 0.00385 µM (active); in the experiment on OVCAR-3, 0.00419 µM (active); with OVCAR-5, 0.0172 µM (active); in the experiment with OVCAR-8, 0.00661 µM (active); with RPMI-8226, 0.0014 µM (active). In addition, the GI50 in the experiment on SF-268 is 0.014 µM (active); with SF-295 it was 0.0202 µM (active); in the experiment with SK-MEL-5, 0.00343 µM (active); with SK-OV-3, 0.0741 µM (active); in the experiment with TK-10 it was 0.0328 µM (active); in the experiment on UACC-257, 0.00464 µM (active).
Take `CCOC(=O)NC(OC)(C(F)(F)F)C(F)(F)F`: the GI50 in the experiment with A549, with HCT-116, in the experiment on HOP-62, in the experiment on MDA-MB-231, in the experiment on MDA-MB-435 and in the experiment on MOLT-4 was > 100 µM (inactive) each time. Moreover, the GI50 in the experiment with NCI-H226, in the experiment with NCI-H23, in the experiment with OVCAR-3, in the experiment with OVCAR-8, in the experiment with RPMI-8226 and with SF-268 was > 100 µM (inactive) in each case. The GI50 in the experiment on SF-295 was > 100 µM (inactive); in the experiment with SK-MEL-5, > 100 µM (inactive); in the experiment on SK-OV-3 it was 46.9 µM (inactive); in the experiment on TK-10 it was > 100 µM (inactive); with UACC-257, > 100 µM (inactive); with UO-31 it was > 100 µM (inactive).
For `Oc1ccc(Cl)cc1C1=NC(NCNC2=NC(c3ccccc3)CC(c3cc(Cl)ccc3O)=N2)=NC(c2ccccc2)C1` (stereo not given), the GI50 with A549 was > 100 µM (inactive); in the experiment with HCT-116, 56 µM (inactive); in the experiment with HOP-62, > 100 µM (inactive); in the experiment with MDA-MB-231, > 100 µM (inactive); in the experiment with MDA-MB-435, 47.9 µM (inactive); in the experiment on NCI-H226 it was > 100 µM (inactive). For the same molecule, the GI50 with NCI-H23 was > 100 µM (inactive); with OVCAR-3, 60.1 µM (inactive); in the experiment on OVCAR-5, 44.1 µM (inactive); in the experiment on OVCAR-8, > 100 µM (inactive); in the experiment on RPMI-8226, 63.4 µM (inactive); in the experiment on SF-268 it was 97.9 µM (inactive). For the same molecule, the GI50 was 79.1 µM (inactive) in the experiment with SF-295; > 100 µM (inactive) in the experiment with SK-MEL-5; > 100 µM (inactive) in the experiment on SK-OV-3; > 100 µM (inactive) in the experiment with TK-10; > 100 µM (inactive) in the experiment with UACC-257; 54.2 µM (inactive) with UO-31.
Consider `CCc1n[nH]c(=O)n1-n1c(C)ccc1C`, for which the GI50 in the experiment on A549, in the experiment with HCT-116, with HOP-62, in the experiment on MDA-MB-231, in the experiment on MDA-MB-435 and with MOLT-4 was > 100 µM (inactive) each time. The GI50 in the experiment on NCI-H226, in the experiment on OVCAR-3, in the experiment with OVCAR-5, in the experiment with OVCAR-8, in the experiment with RPMI-8226 and in the experiment with SF-268 was > 100 µM (inactive) in each case. Moreover, the GI50 in the experiment on SF-295, with SK-MEL-5, with SK-OV-3, in the experiment on SN12C, in the experiment with TK-10 and with UACC-257 was > 100 µM (inactive) throughout. Also, the GI50 in the experiment with UO-31 is > 100 µM (inactive).
Regarding `NC(=S)N/N=C\CC(O)(C(F)(F)F)C(F)(F)F`, the GI50 with A549, in the experiment on HCT-116, in the experiment with HOP-62, with MDA-MB-231, in the experiment on MDA-MB-435 and in the experiment on MOLT-4 was > 10 µM (inactive) each time. Further, the GI50 in the experiment with NCI-H226, in the experiment on NCI-H23, with OVCAR-3, with OVCAR-8, in the experiment with RPMI-8226 and in the experiment with SF-268 was > 10 µM (inactive) throughout. In addition, the GI50 in the experiment on SF-295, with SK-MEL-5, in the experiment on SK-OV-3, with SN12C, in the experiment on TK-10 and with UACC-257 was > 10 µM (inactive) each time. For the same molecule, in the experiment on UO-31, the GI50 was > 10 µM (inactive).
Consider `CC(=O)NC1C(OCc2ccccc2)OC(CO)C(O)C1OCC(=O)N[C@@H](C)C(=O)N[C@H](CCC(=O)NCCCNc1ccc([N+](=O)[O-])c2[nH]c3ccccc3c(=O)c12)C(N)=O` (stereo not given in full), for which the GI50 with A549 was > 100 µM (inactive); with HCT-116 it was 45.4 µM (inactive); with HOP-62 it was 65 µM (inactive); in the experiment on MDA-MB-231, > 100 µM (inactive); in the experiment with MDA-MB-435, > 100 µM (inactive); in the experiment on NCI-H226, 25.5 µM (inactive). Moreover, the GI50 in the experiment with NCI-H23 was > 100 µM (inactive); in the experiment with OVCAR-3, > 100 µM (inactive); in the experiment with OVCAR-5, > 100 µM (inactive); in the experiment with OVCAR-8, 92.9 µM (inactive); with RPMI-8226, > 100 µM (inactive); in the experiment on SF-295, 56.6 µM (inactive). Also, the GI50 in the experiment with SK-MEL-5 is 57.9 µM (inactive); in the experiment with SK-OV-3 it was > 100 µM (inactive); with SN12C, > 100 µM (inactive); with TK-10 it was 41.7 µM (inactive); with UACC-257 it was 54 µM (inactive); in the experiment on UO-31, > 100 µM (inactive).

(Values after ChEMBL document CHEMBL1201862, “PubChem BioAssay data set” (2004).)
